Test results published in patent publication US7915293B2, “Ubiquitin ligase inhibitors” (Rigel Pharmaceuticals, Inc., priority 2003, dated 2011).

Key:
Parameters in all cases: key: “+” indicates that the compound exibits inhibitory activity; “−” indicates that low or no inhibitory activity was observed
A549 cells [1] = assay: Cell proliferation assay, photographic image analysis of proliferation, apoptosis and death (PAD assay), A549; format: cell-based; details: 6 concentrations tested
Summary of the method: (§1)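 Cells grown in RPMI with 5% FBS (2,000/well) and dosed 24 h after plating with 6.3-fold dilutions in duplicate (master plate 500× final, top 10 mM stock). After 48 h at 37 °C, cells formamide-fixed and DAPI-stained. Image analysis counted live, apoptotic and dead cells.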

A549 cells [2] = assay: Non-photographic proliferation analysis (Promega Cell titer Aqueous), A549; format: cell-based; details: 6 concentrations tested
Summary of the method: (§2)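 HeLa, A549 and HCT116 cells, 2,000 per well in RPMI with 5% FBS, were given compounds 24 h after plating as 6.3-fold duplicate dilutions from 10 mM stock, diluted 500-fold into the wells. After 48 h at 37° C, 5% CO2, Cell titer Aqueous reagent was added for 45 min and absorbance read at 490 nm.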

[3] = molecular target: T1, E3 (His-APC11/APC2-"APC") (Homo sapiens, UniProt Q9NYG5+Q9UJX6); assay: Gel-based E3 ligase assay, auto-ubiquitination; format: biochemical
Experimental: E3 (His-APC11/APC2-“APC”) auto-ubiquitination was measured as described in U.S. patent application Ser. No. 09/826,312 (Publication No. U.S. Pat. No. 2,002,0042083-A1), which is incorporated herein in its entirety. Details of the protocol are described below. Activity in the presence of compound was determined relative to a parallel control in which only DMSO is added. The IC50 values were typically determined using 6 or 8 different concentrations of compound, although as few as 2 concentrations may be used to approximate the IC50 values.
Corning 96-well plates (Corning 3650) were blocked with 100 μl of Blocking Buffer for 1 hour at room temperature. The plates were washed 4 times with 225 μl of 1×PBS and 80 μl of the reaction buffer were added that contained 100 ng/well of Flag-ubiquitin. To this, 10 μl of the test compound diluted in DMSO were added. After the test compound was added, 10 μl of E1 (human), E2 (Ubch5c) and APC in Protein Buffer were added to obtain a final concentration of 5 ng/well of E1, 20 ng/well of E2 and 100 ng/well APC. The plates were shaken for 10 minutes and incubated at room temperature for 1 hour. After incubation, the reaction was stopped by adding 25 μl of loading buffer (non-reducing) per well and the plates were heated at 95° C. for 5 minutes. An aliquot of each well was run on a 10% NugePage Gel and analyzed by Western Blot using the antibody mix and Lumino substrate described below. The luminescence was measured by using a BMG luminescence microplate reader.
(§3) To prepare the Blocking Buffer (1 liter; 1% Casein in 1×PBS), 10 grams of Casein (Hammersten Grade Casein from Gallard-Schlesinger Inc. #440203) were placed into 1 liter of 1×PBS, stirred on a hot plate and kept between 50-60° C. for an hour. The buffer was allowed to cool to room temperature and then filtered using a Buchner Funnel (Buchner filter funnel 83 mm 30310-109) and Whatman filter paper (Whatman Grade No. 1 Filter paper 28450-070). It was stored at 4° C. until used.
(§4) The reaction buffer consisted of 62.5 mM Tris pH 7.6 (Trizma Base—Sigma T-8524), 3 mM MgCl2 (Magnesium Chloride—Sigma M-2393), 1 mM DTT (Sigma D-9779), 2.5 mM ATP (Roche Boehringer Mann Corp. 635-316), 100 ng/well of Flag-ubiquitin, 0.1% BSA (Sigma A-7906), and 0.05% Tween-20 (Sigma P-7949).
(§5) The Protein Buffer consisted of 20 mM Tris pH 7.6, 10% glycerol (Sigma G-5516) and 1 mM DTT.
(§6) The antibody mix consisted of 0.25% BSA (Sigma A-7906) in 1×PBS, 1/50,000 anti-Flag (Sigma F-3165), 1/100,000 of anti-Mouse IgG-HRP (Jackson Immunoresearch #115-035-146).
The substrate mix consisted of SuperSignal Substrate from Pierce (catalog number 37070ZZ) and was prepared by mixing 100 ml of the peroxide solution, 100 ml of the enhancer solution and 100 ml of Millie water.

HeLa cells [4] = assay: Cell proliferation assay, photographic image analysis of proliferation, apoptosis and death (PAD assay), HeLa; format: cell-based; details: 6 concentrations tested
Summary of the method: as §1

HeLa cells [5] = assay: Non-photographic proliferation analysis (Promega Cell titer Aqueous), HeLa; format: cell-based; details: 6 concentrations tested
Summary of the method: as §2

HCT116 cells = assay: Cell proliferation assay, photographic image analysis of proliferation, apoptosis and death (PAD assay), HCT116; format: cell-based; details: 6 concentrations tested
Experimental: A549 (ATCC# CCL-185), HeLa (ATCC# CCL-2), HCT116 (ATCC# CCL-247), and H1299 (ATCC# CRL-5803) cells were maintained in T175 flasks following the ATCC recommended media and handling procedures. Flasks reaching approximately 70% confluency were trypsinized and resuspended in RPMI media (Cell-Gro catalog number 10-040-CM) modified to contain 5% FBS, 100 ug/mlPen/Strep (Cell-Gro catalog number 30-002-CL), and 0.3 mg/ml L-Glutamine (Cell-Gro catalog number 25-003-CL). A 20,000 cells/ml solution was made for plating. Cells were plated in black Packard 96 well plates by placing 100 μl per well (2,000 cells per well).
Compounds and additional media were added 24 hours after cell plating. A compound master plate was created with concentrations 500 times greater than the final concentration added to the cells. All compound testing was done in duplicate using 6.3 fold dilutions starting with 10 mM. All outside wells (and 4 internal wells) were DMSO controls. Taxol and at least one additional control were run on all plates. Three microliters of the compound master plate were added to deep well blocks containing 750 μl of RPMI media. One hundred microliters were transferred from the compound/media deep well blocks to the plated cells resulting in a 500 fold dilution of the compounds. Cells were grown at 37° C., 5% CO2 for 48 hours.
Cells to be analyzed by photography were fixed and stained. One hundred microliters of media were removed and 100 μl of 9.3% […] was added to each well. Plates were left on the benchtop for 45 minutes. A staining solution containing 1.55 μl of 1 mg/ml DAPI added to 18.75 ml PBS was warmed for 15 minutes at 37° C. The cells were aspirated prior to washing with 100 μl of PBS. Seventy microliters of PBS were aspirated and 170 μl of the DAPI solution were added to each well of fixed cells. Plates were left at room temperature for one hour then aspirated and washed twice with 100 μl of PBS. The stained cells were left at 4° C. for a minimum of 16 hours before photographic analysis with Array Scan II (Cellomics). Analysis of the photographic images to determine numbers of live cells (proliferation), apoptotic cells and dead cells, were according to the methods described in U.S. Provisional Patent Application Ser. No. 60/406,714, which incorporated herein in its entirety.

MDM2 / p53 substrate = MDM2 / p53 substrate (Homo sapiens, UniProt Q00987); assay: Plate-based MDM2 substrate ligation assay (MDM2-P53-FLAG); format: biochemical; details: 8 concentrations tested
From the text: This assay was preformed essentially as described in WO 03/076899 (page 77, line 5 to page 80, line 13), hereby incorporated by reference in its entirety.

[6] = molecular target: T1, E3 (His-APC11/APC2-"APC"); assay: Plate-based E3 ligase assay (APC FLAG), auto-ubiquitination; format: biochemical; details: 8 concentrations tested
Summary of the method: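 His-APC11/APC2 auto-ubiquitination was run in casein-blocked nickel plates for 1 h at room temperature, with E1 at 5 ng/well, UbcH5c at 20 ng/well and APC at 100 ng/well. Buffer was 62.5 mM Tris pH 7.6, 3 mM MgCl2, 1 mM DTT, 2.5 mM ATP and Flag-ubiquitin at 100 ng/well. Detection used anti-Flag/HRP chemiluminescence, and IC50 was typically from 6 or 8 concentrations versus a DMSO control.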

E3 MDM2 = E3 MDM2 (Homo sapiens, UniProt Q00987); assay: Plate-based autoubiquitination of the E3 MDM2 (MDM2-FLAG); format: biochemical; details: 8 concentrations tested
Experimental: E3 (His-APC11/APC2-“APC”) auto-ubiquitination was measured as described in U.S. patent application Ser. No. 09/826,312 (Publication No. US-2002-0042083-A1), which is incorporated herein in its entirety. Details of the protocol are described below. Activity in the presence of the compound was determined relative to a parallel control in which only DMSO was added. Values of the IC50 were typically determined using 6 or 8 different concentrations of the compound, although as few as 2 concentrations may be used to approximate the IC50 value.
Nickel-coated 96-well plates (Pierce 15242) were blocked for 1 hour with 100 μl of blocking buffer at room temperature. The plates were washed 4 times with 225 μl of 1×PBS and 80 μl of the reaction buffer were added that contained 100 ng/well of Flag-ubiquitin. To this, 10 μl of the test compound diluted in DMSO were added. After the test compound was added, 10 μl of E1 (human), E2 (Ubch5c), and APC in Protein Buffer was added to obtain a final concentration of 5 ng/well of E1, 20 ng/well of E2 and 100 ng/well of APC. The plate were shaken for 10 minutes and incubated at room temperature for 1 hour. After incubation, the plates were washed 4 times with 225 μl of 1×PBS and 100 μl/well of Antibody Mix were added to each well. The plates were incubate at room temperature for another hour after which they were washed 4 times with 225 μl of 1×PBS and 100 μl/well of Lumino substrate were added to each well. The luminescence was measured by using a BMG luminescence microplate reader.
as §3, §4, §5, §6
The substrate mix consisted of SuperSignal Substrate from Pierce (catalog number 37070ZZ) and was prepared by mixing 100 ml of the peroxide solution, 100 ml of the enhancer solution and 100 ml of Milli-Q® water.
In similar manner, autoubiquitination of the E3 MDM2 was determined (MDM2-FLAG). Further instruction in such assays can be found in U.S. patent application Ser. No. 10/108,767 (Publication No. US-2003-0104474 A1), which is incorporated herein in its entirety.

T1 sequence (Q9NYG5 whole entry): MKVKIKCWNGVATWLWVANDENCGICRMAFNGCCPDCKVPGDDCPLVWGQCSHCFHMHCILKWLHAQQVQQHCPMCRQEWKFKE
T1 sequence (Q9UJX6 whole entry): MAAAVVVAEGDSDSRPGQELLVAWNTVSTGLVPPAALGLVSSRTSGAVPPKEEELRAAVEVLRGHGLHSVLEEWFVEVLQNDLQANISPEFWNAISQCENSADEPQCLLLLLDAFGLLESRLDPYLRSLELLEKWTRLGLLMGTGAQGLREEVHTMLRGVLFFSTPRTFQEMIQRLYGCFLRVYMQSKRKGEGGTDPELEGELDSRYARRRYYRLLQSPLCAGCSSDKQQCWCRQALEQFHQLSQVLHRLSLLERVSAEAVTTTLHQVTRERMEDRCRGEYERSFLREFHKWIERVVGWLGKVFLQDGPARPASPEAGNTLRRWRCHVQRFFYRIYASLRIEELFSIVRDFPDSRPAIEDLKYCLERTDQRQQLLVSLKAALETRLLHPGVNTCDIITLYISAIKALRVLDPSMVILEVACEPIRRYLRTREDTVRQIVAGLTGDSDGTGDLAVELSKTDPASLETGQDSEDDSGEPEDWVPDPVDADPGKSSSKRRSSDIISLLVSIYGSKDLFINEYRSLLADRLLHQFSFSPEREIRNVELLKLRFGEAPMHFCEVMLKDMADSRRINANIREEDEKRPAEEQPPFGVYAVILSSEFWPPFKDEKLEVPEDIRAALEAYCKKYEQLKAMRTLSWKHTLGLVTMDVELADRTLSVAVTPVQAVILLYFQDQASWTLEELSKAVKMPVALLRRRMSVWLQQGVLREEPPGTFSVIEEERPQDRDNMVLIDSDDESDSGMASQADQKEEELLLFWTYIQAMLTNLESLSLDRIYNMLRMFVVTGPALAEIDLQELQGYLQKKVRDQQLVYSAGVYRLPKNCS
Chain of E3 MDM2 (Q00987 whole entry): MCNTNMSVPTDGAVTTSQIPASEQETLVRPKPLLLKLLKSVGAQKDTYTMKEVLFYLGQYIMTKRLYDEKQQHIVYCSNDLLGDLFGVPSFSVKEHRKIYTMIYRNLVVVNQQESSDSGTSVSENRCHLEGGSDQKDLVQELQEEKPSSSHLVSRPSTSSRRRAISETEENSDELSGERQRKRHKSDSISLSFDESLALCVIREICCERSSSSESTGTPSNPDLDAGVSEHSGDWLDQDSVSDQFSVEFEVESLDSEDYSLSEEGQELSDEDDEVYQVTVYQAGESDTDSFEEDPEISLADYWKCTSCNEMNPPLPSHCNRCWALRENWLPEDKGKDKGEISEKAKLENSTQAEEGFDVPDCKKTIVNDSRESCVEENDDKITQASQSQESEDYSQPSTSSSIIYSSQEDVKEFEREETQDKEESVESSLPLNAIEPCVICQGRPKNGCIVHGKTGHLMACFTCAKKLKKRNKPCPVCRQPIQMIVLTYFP
Chain of MDM2 / p53 substrate (Q00987 whole entry): as above

Structure (SMILES)	PAD Assay, A549 6 pt (A549 cells [1])	Cell Titer-Aqueous, A549 6 pt (A549 cells [2])	APC Flag (gel) [3]	PAD Assay, HELA 6 pt (HeLa cells [4])	Cell Titer-Aqueous, HELA 6 pt (HeLa cells [5])	PAD Assay, HCT116 6 pt (HCT116 cells)	MDM2-P53 Flag 8 pt (MDM2 / p53 substrate)	APC Flag 8 pt [6]	MDM2-Auto Flag 8 pt (E3 MDM2)
O=[N+]([O-])c1ccc(Oc2c(Cl)cc(S(=O)(=O)Nc3ccncc3)cc2Cl)c(Cl)c1 [Example 221, 3,5-dichloro-4-(2-chloro-4-nitrophenoxy)-N-pyridin-4-ylbenzenesulfonamide]	−	−	− (gel)	−	−				
O=[N+]([O-])c1ccc(Oc2c(Cl)cc(S(=O)(=O)Nc3ccc4cc[nH]c4c3)cc2Cl)c(Cl)c1 [Example 172, 3,5-dichloro-4-(2-chloro-4-nitrophenoxy)-N-1H-indol-6-ylbenzenesulfonamide]	+	+	+ (gel)	+	+				
O=[N+]([O-])c1ccc(Oc2c(Cl)cc(S(=O)(=O)Nc3cc(Cl)ccc3Cl)cc2Cl)c(Cl)c1 [Compound 203, 3,5-dichloro-4-(2-chloro-4-nitrophenoxy)-N-(2,5-dichlorophenyl)benzene sulfonamide]	+	+		+	+	+	+	+	+
O=[N+]([O-])c1ccc(Oc2c(Cl)cc(S(=O)(=O)Nc3ccc(Cl)cc3[N+](=O)[O-])cc2Cl)c(Cl)c1 [Compound 215, 3,5-dichloro-4-(2-chloro-4-nitrophenoxy)-N-(4-chloro-2-nitrophenyl)benzene sulfonamide]	+	+		+	+	+	+	+	+
O=[N+]([O-])c1ccc(Oc2c(Cl)cc(S(=O)(=O)NCCc3ccc(O)cc3)cc2Cl)c(Cl)c1 [Example 223, 3,5-dichloro-4-(2-chloro-4-nitrophenoxy)-N-[2-(4-hydroxyphenyl)ethyl]benzene-sulfonamide]		−	− (gel)		−				
CSc1ccccc1NS(=O)(=O)c1cc(Cl)c(Oc2ccc([N+](=O)[O-])cc2Cl)c(Cl)c1 [Example 191, 3,5-dichloro-4-(2-chloro-4-nitrophenoxy)-N-[2-(methylthio)phenyl]benzenesulfonamide]	+		− (gel)	+		+			
NC(=O)c1ccccc1NS(=O)(=O)c1cc(Cl)c(Oc2ccc([N+](=O)[O-])cc2Cl)c(Cl)c1 [Example 193, 2-({[3,5-dichloro-4-(2-chloro-4-nitrophenoxy)phenyl]sulfonyl}amino)benzamide]			− (gel)						
